Test results published in paper PMC6151825, “Identification of Novel Bisbenzimidazole Derivatives as Anticancer Vacuolar (H^+)-ATPase Inhibitors” (Molecules : A Journal of Synthetic Chemistry and Natural …, 2017).

Experiments:
PA-1 cells = assay: MTS cell viability assay, PA-1; assay type: cell-based; details: Homo sapiens, cisplatin-sensitive ovarian cancer cell line, 48 h exposure, read-out: IC50 ± SD, PA-1
Excerpt: (§1) Our research group is extensively involved in studying the role of vacuolar (H^+)-ATPase in breast as well as ovarian cancer cell lines. We examined the antiproliferative activity of the novel bisbenzimidazole derivatives (2a–e) in selected human breast cancer cell lines, MDA-MB-231 (ATCC, HTB-26), MDA-MB-468 (ATCC, HTB-132), MCF-7 (ATCC, HTB-22), and the normal breast epithelial cell line, MCF10A. We also used the cisplatin-sensitive A2780, PA-1 (ATCC, CRL 1572), and the cisplatin-resistant Cis-A2780 ovarian cancer cell lines. A potent V-ATPase inhibitor, Bafilomycin A1 (Baf A1), was used as the positive control. We employed the CellTiter 96 AQueous One solution cell proliferation assay (MTS; Promega) to measure the in vitro cell viability of the cells.
(§2) We studied the antiproliferative activity of an initial hit (compound V), and bisbenzimidazole analogs 2a–e in the selected human breast cancer cell lines MDA-MB-231 (ATCC, HTB-26), MDA-MB-468 (ATCC, HTB-132), MCF-7 (ATCC, HTB-22) and the normal breast epithelial cell line, MCF10A, and the ovarian cancer cell lines, A2780, Cis-A2780, and PA-1 (ATCC, CRL 1572). Human breast cancer cell lines and the human ovarian cancer cell line (PA-1) were purchased from ATCC (American Type Culture Collection, Manassas, VA, USA). The cisplatin-sensitive human ovarian carcinoma cell line, A2780, was obtained from Sigma-Aldrich. The cisplatin-resistant human ovarian cell line, Cis-A2780, was produced in our laboratory, as described in the literature. MDA-MB-231, MDA-MB-468, MCF7, and PA-1 were cultured in the MEM medium (Gibco—Life Technologies, Carlsbad, CA, USA). For the MCF-7 cell line, a final concentration of 0.01 mg/mL human recombinant insulin was added to the media. The normal breast epithelial cell line, MCF-10A, was cultured in complete MEBM (Lonza/Clonetics, Walkersville, MD, USA), as recommended by ATCC. A2780, Cis-A2780 cell lines were cultured in RPMI 1640 medium (Invitrogen, Carlsbad, CA, USA). All media were supplemented with 10% (v/v) heat-inactivated fetal bovine serum (Biowest LLC, Riverside, MO, USA), 100 U/mL penicillin G and 100 U/mL streptomycin (Sigma Aldrich, St. Louis, MO, USA). Cultures were maintained at 37 °C in a humidified atmosphere containing 5% CO2 and were passaged by trypsinization after reaching 80–90% confluence.
(§3) CellTiter 96 AQueous One Solution cell proliferation assay (MTS) was used to measure the in vitro cell viability of cells, and the MTS purchased from Promega (Madison, WI, USA). Cells (5 × 10^3) were seeded into each well of 96-well plates and incubated overnight. Dimethyl Sulfoxide (DMSO) stock solutions of the compounds (V, 2a–e) were diluted in corresponding media and exposed to different concentrations for 48 h. All three independent experiments were performed in quadruplicates. Untreated cells were used as a negative control and data were presented as the mean ± standard deviation (S.D.). The absorbances at 492 nm were measured using a Microplate Reader (Synergy HT, Biotek Instruments, Winooski, VT, USA). The compound concentration that inhibited cell growth by 50% of the untreated control (IC50) was calculated from the dose response curves constructed by plotting percentages of cell viability versus drug concentrations using nonlinear regression analysis by GraphPad Prism Software 7 (GraphPad Software, San Diego, CA, USA).

A2780 cells = assay: MTS cell viability assay, A2780; assay type: cell-based; details: Homo sapiens, cisplatin-sensitive ovarian cancer cell line, 48 h exposure, read-out: IC50 ± SD, A2780
Excerpt: as §1, §2, §3

MDA-MB-231 cells = assay: MTS cell viability assay, MDA-MB-231; assay type: cell-based; details: Homo sapiens, breast cancer cell line, 48 h exposure, read-out: IC50 ± SD, MDA-MB-231
Excerpt: as §1, §2, §3

MCF10A cells = assay: MTS cell viability assay, MCF10A normal breast epithelial cells; assay type: cell-based; details: Homo sapiens, MCF-10A, normal breast epithelial cell line, 48 h exposure, read-out: IC50 ± SD, MCF10A
Excerpt: as §1, §2, §3

Cis-A2780 cells = assay: MTS cell viability assay, Cis-A2780; assay type: cell-based; details: Homo sapiens, cisplatin-resistant ovarian cancer cell line, 48 h exposure, read-out: IC50 ± SD, Cis-A2780
Excerpt: as §1, §2, §3

MDA-MB-468 cells = assay: MTS cell viability assay, MDA-MB-468; assay type: cell-based, human; details: for IC50: Homo sapiens, MDA-MB-468, triple-negative breast cancer cell line, 48 h exposure, MTS, read-out: IC50 ± SD, MDA-MB-468
Excerpt: as §1, §2, §3

V-ATPase = assay: Proton pump activity, acridine orange fluorescence quenching in MDA-MB-231 cells; assay type: cell-based, human; details: 20 min incubation, relative to untreated control
Excerpt: Since our hit compound (V) has been identified by the literature known V-ATPases, we hypothesized that these newly synthesized bisbenzimidazole derivatives (2a–e) will work as proton pump inhibitors (PPIs). To neutralize the acidic microenvironment, PPIs have been used to target the V-ATPase pumps present on the cell membrane. […] Therefore, we selected efficacious anticancer agents for the proton pump activity. We performed the standard proton pump activity using the acridine orange (AO) fluorescence quenching method. We selected two highly efficacious compounds (2d and 2e) and our initial hit (V) for proton pump activity. Baf A1 is a known V-ATPase inhibitor and is used as a positive control. The proton pump activity of cells was measured as a decrease in the fluorescence intensity per min. The activity of cells in the presence of Baf A1 and the potent compounds (V, 2d, and 2e) was calculated as a percentage of the untreated control. The values represented are mean values of duplicate measurements (Figure 10).
The proton pump activity was assessed by using the AO fluorescence quenching method. Bafilomycin A1 (Baf A1), AO, and nigericin were purchased from Sigma-Aldrich. Hank’s Balanced Salt Solution (HBSS) was purchased from Gibco-Life Technologies (Carlsbad, CA, USA). Human breast cancer MDA-MB-231 (ATCC, HTB-26) cells were washed twice with Hank’s Balanced Salt Solution (HBSS). The cells were re-suspended at a density of 5 × 10^6 cells per mL in the same buffer and placed on ice. H^+ uptake was initiated by the addition of MDA-MB-231 cells (10 μL; […]) to pre-warmed HBSS (2.4 mL) containing AO (6 μL; 30 μM) and placed in a cuvette. AO fluorescence was measured at an excitation wavelength of 495 nm and an emission wavelength of 540 nm using the LS-50B Luminescence Spectrometer (Perkin Elmer, Software: FL WinLab, Version 4.00.03). Nigericin (6 μL; 6 μM) was added to collapse the pH gradient and unquench the AO fluorescence (See Supplementary Figure S1: 1a and 1b). […] A decrease in the fluorescence intensities per min of Baf A1 and the potent compounds (V, 2d, and 2e) was calculated and is expressed as a percentage of the control (mean ± SD of two independent experiments) (Figure 10).
Figure 10 Effect of V-ATPase inhibitors on proton pump activity. Cells (MDA-MB-231) were subjected to acridine orange (AO) fluorescence quenching assay in the presence and absence of Baf A1 (1 μM) and potent compounds (V, 2d, and 2e; 10 μM). Fluorescence intensity at an excitation of 495 nm and an emission of 540 nm was quantified. Decrease in fluorescence intensity per min was calculated as percentage relative to control (mean ± SD; n = 2).

MCF7 cells = assay: MTS cell viability assay, MCF7; assay type: cell-based; details: Homo sapiens, breast cancer cell line, 48 h exposure, read-out: IC50 ± SD, MCF7
Excerpt: as §1, §2, §3

Structure (SMILES) | IC50 (A2780 cells) | IC50 (MDA-MB-231 cells) | IC50 (Cis-A2780 cells) | IC50 (MDA-MB-468 cells) | melting point | IC50 (MCF7 cells) | IC50 (PA-1 cells) | IC50 (MCF10A cells) | inhibition of the H^+-ATPase activity (V-ATPase; 1 μM) | times less toxic, MCF10A versus MDA-MB-468 (MDA-MB-468 cells; ratio of IC50 in normal MCF10A cells to IC50 in MDA-MB-468 cells) | inhibition of the H^+-ATPase activity (V-ATPase; 10 μM)
CO/C1=C\C(C)=C\[C@@H](C)[C@@H](O)[C@@H](C)C/C(C)=C/C=C/[C@H](OC)[C@@H]([C@@H](C)[C@@H](O)[C@H](C)[C@@]2(O)C[C@@H](O)[C@H](C)[C@@H](C(C)C)O2)OC1=O [Baf A1, Bafilomycin A1, reference compound] | – | 26 ± 20 nM | 8 ± 10 nM | – | – | – | – | 36 ± 40 nM | 25% | – | –
CN1CCN(c2ccc3nc(-c4ccc5nc(-c6ccc(OCCC(C)(C)C)cc6)[nH]c5c4)[nH]c3c2)CC1 [Compound 2e, 2'-(4-(3,3-Dimethylbutoxy)phenyl)-6-(4-methylpiperazin-1-yl)-1H,3'H-2,5'-bibenzo[d]imidazole] | 2770 ± 50 nM | 1580 ± 50 nM | 1340 ± 140 nM | 40 ± 20 nM | 247 to 248 °C | 2020 ± 120 nM | 2870 ± 150 nM | 1620 ± 140 nM | – | ~40 times | 42%
CN1CCC(Oc2ccc(-c3nc4ccc(-c5nc6ccc(N7CCN(C)CC7)cc6[nH]5)cc4[nH]3)cc2)CC1 [Compound 2a, 6-(4-Methylpiperazin-1-yl)-2'-(4-((1-methylpiperidin-4-yl)oxy)phenyl)-1H,3'H-2,5'-bibenzo[d]imidazole] | 26500 ± 1440 nM | 17600 ± 190 nM | 25200 ± 320 nM | 13400 ± 330 nM | 165 to 166 °C | 49300 ± 2760 nM | – | 13400 ± 370 nM | – | – | –

The next lines start with results.

IC50 (A2780 cells) | IC50 (MDA-MB-231 cells) | IC50 (Cis-A2780 cells) | IC50 (MDA-MB-468 cells) | melting point | IC50 (MCF7 cells) | Structure (SMILES) | IC50 (PA-1 cells) | IC50 (MCF10A cells) | inhibition of the H^+-ATPase activity (V-ATPase; 1 μM) | times less toxic, MCF10A versus MDA-MB-468 (MDA-MB-468 cells; ratio of IC50 in normal MCF10A cells to IC50 in MDA-MB-468 cells) | inhibition of the H^+-ATPase activity (V-ATPase; 10 μM)
12900 ± 420 nM | 750 ± 300 nM | 10700 ± 220 nM | 1170 ± 360 nM | 197 to 198 °C | – | CN(C)CCOc1ccc(-c2nc3ccc(-c4nc5ccc(N6CCN(C)CC6)cc5[nH]4)cc3[nH]2)cc1 [Compound 2c, N,N-Dimethyl-2-(4-(6-(4-methylpiperazin-1-yl)-1H,3'H-[2,5'-bibenzo[d]imidazol]-2'-yl)phenoxy)ethanamine] | 7780 ± 810 nM | 810 ± 100 nM | – | – | –
11800 ± 10 nM | 4770 ± 430 nM | 12340 ± 20 nM | 5830 ± 230 nM | 171 to 172 °C | 13500 ± 2140 nM | CN(C)CCCOc1ccc(-c2nc3ccc(-c4nc5ccc(N6CCN(C)CC6)cc5[nH]4)cc3[nH]2)cc1 [Compound 2b, N,N-Dimethyl-3-(4-(6-(4-methylpiperazin-1-yl)-1H,3'H-[2,5'-bibenzo[d]imidazol]-2'-yl)phenoxy)propan-1-amine] | 5830 ± 70 nM | 2950 ± 150 nM | – | – | –
1970 ± 190 nM | 2440 ± 330 nM | 3030 ± 180 nM | 560 ± 50 nM | 208 to 209 °C | 22000 ± 3900 nM | COCCOc1ccc(-c2nc3ccc(-c4nc5ccc(N6CCN(C)CC6)cc5[nH]4)cc3[nH]2)cc1 [Compound 2d, 2'-(4-(2-Methoxyethoxy)phenyl)-6-(4-methylpiperazin-1-yl)-1H,3'H-2,5'-bibenzo[d]imidazole] | 3090 ± 30 nM | 1550 ± 40 nM | – | – | 14%
3870 ± 90 nM | 1020 ± 80 nM | 3950 ± 330 nM | 720 ± 80 nM | – | 9330 ± 690 nM | CCOc1ccc(-c2nc3cc(-c4nc5cc(N6CCN(C)CC6)ccc5[nH]4)ccc3[nH]2)cc1 [Compound V] | 1700 ± 210 nM | 1140 ± 130 nM | – | – | 30%
